Laboratory results as given in patent EP4678638A1, “NEW E3 UBIQUITIN LIGASE LIGAND, PROTEIN DEGRADATION AGENT AND USE THEREOF” (priority 2023, dated 2024).

Legend:
[1] = tested on: TMD8; test: CCK-8 proliferation, TMD8; type: cell-based; settings: Homo sapiens, TMD8; CCK-8; 72 hours; read-out: Inhibitory activity (IC50) on tumor cell proliferation, TMD8
Experimental: (§1) The tumor cells used herein were cultured in a cell culture medium listed in table A1 at 37°C in an incubator with 5% CO2. Prior to experimentation, all cell lines used were correctly identified by STR profiling, and tested negative for mycoplasma contamination using a mycoplasma detection kit through routine screenings. Table A1. Tumor cells and cell culture medium used in the present disclosure
(§2) IC50 values of the compounds of the present disclosure (including the compounds in Table 1, and compounds of examples) were measured using the Meilun Cell Counting Kit-8 kit from Dalian Meilun Biotech Co., Ltd. Assay details are as follows: tumor cells were seeded in a 96-well plate at a density listed in Table A2. After 24h, 100 µL of the inoculated cells were treated with 0.5µL of the compounds of the present disclosure (including the compounds in Tables 1 and 2, and compounds of examples) at 10 different successively decreasing concentrations (starting at the highest concentration of 10µM; 5-fold serial dilutions). After the cells were treated with the compounds of the present disclosure for a period of time, the cell viability detection reagent was added to the culture medium for cell viability assessment according to the instructions provided with the CCK-8 kit. […] The growth inhibition of the compounds of the present disclosure on cells was plotted by Prism Graphpad software, and the IC50 values of the compounds of the present disclosure were calculated therefrom. […] Seeding protocol and treatment time for tumor cells

[2] = tested on: DU-145; test: CCK-8 proliferation, DU-145; type: cell-based; settings: Homo sapiens, 96 hours, read-out: Inhibitory activity (IC50) on tumor cell proliferation, DU-145
Experimental: as §1, §2

[3] = tested on: CCRF-CEM; test: CCK-8 proliferation, CCRF-CEM; type: cell-based, Human; settings: Homo sapiens, CCRF-CEM; CCK-8; 96 hours; read-out: Inhibitory activity (IC50) on tumor cell proliferation, CCRF-CEM
Summary of the method: (§3)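 Cells seeded, then after 24 h treated with 10 concentrations (top 10 µM, 5-fold serial dilution) for a line-specific time at 37°C, 5% CO2. Viability read by CCK-8; IC50 fitted from growth-inhibition curves.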

[4] = tested on: Jurkat; test: CCK-8 proliferation, Jurkat; type: cell-based, Human; settings: Homo sapiens, Jurkat; CCK-8; 96 hours; read-out: Inhibitory activity (IC50) on tumor cell proliferation, Jurkat
Summary of the method: as §3

[5] = tested on: SU-DHL-4; test: CCK-8 proliferation, SU-DHL-4; type: cell-based; settings: Homo sapiens, 72 hours, read-out: Inhibitory activity (IC50) on tumor cell proliferation, SU-DHL-4
Experimental: as §1, §2

[6] = target: T1, CDK9 (Homo sapiens, UniProt P50750); test: Western blot degradation of CDK9 (MDA-MB-231 Cell); type: cell-based; settings: Table D13
T1 construct: evaluate the effects of the compounds of the present disclosure on the expression of target proteins in cells; endogenous in cells; host or cells: MDA-MB-231
T1 sequence (P50750 whole entry): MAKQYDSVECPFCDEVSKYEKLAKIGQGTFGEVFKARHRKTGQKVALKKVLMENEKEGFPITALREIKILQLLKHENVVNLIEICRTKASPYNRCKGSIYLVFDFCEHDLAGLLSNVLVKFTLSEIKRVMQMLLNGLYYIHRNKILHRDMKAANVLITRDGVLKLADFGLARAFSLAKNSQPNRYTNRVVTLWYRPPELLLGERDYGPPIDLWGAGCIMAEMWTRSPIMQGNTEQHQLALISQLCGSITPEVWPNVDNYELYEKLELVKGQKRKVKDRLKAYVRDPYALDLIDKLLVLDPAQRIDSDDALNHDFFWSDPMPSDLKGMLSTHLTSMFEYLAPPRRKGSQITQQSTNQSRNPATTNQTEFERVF
Experimental: (§4) Conventional Western blot assay was performed to evaluate the effects of the compounds of the present disclosure on the expression of target proteins in cells.
(§5) (1) Cell Seeding and Protein Harvesting: The selected cells were processed according to the cell seeding procedure and protein harvesting procedure in Table III-2. Table III-2 Cell Seeding and Protein Harvesting Procedures
(§6) (2) To the collected supernatant, 5X SDS sample loading buffer was added, followed by denaturation at 95°C for 5 minutes. The denatured samples were then separated by SDS-PAGE electrophoresis on a polyacrylamide gel. Proteins were transferred to a nitrocellulose membrane (0.45 µm NC membrane), blocked with blocking buffer at room temperature for 1 hour, and subjected to antibody incubation and development procedures according to the antibody manufacturer's instructions (Cell Signaling Technology).
(§7) Half-Maximal Degradation Concentration value (the drug concentration required for degrading proteins by 50%, abbreviated as DC50) reads method: comparing the grayscale values of Western blot bands from drug-treated samples with those from blank DMSO-treated controls, and identifying the drug concentration range at which the grayscale value is half that of the DMSO-treated control bands.
(§8) DC50 values can be calculated using ImageJ software to measure grayscale values of Western blot bands from drug-treated samples. The concentration-response curve is fitted to estimate the drug concentration corresponding to half the grayscale value.
(§9) Target protein remaining (%) refers to the percentage of target protein remaining in hPBMC cells after treatment with protein degrader compounds.
(§10) Calculation method for target protein remaining (%): Use ImageJ software to measure grayscale values of Western blot bands from drug (protein degrader)-treated samples. The grayscale value of drug-treated bands is divided by that of internal control protein bands, and the resulting quotient is normalized to obtain the relative percentage of remaining target protein after protein degrader treatment.
(§11) Target protein degradation rate (%) = 100% - target protein remaining (%).

[7] = target: T2, human Cereblon WT GST-tagged protein (Homo sapiens, UniProt Q96SW2); test: CRBN binding, HTRF (CEREBLON BINDING kit); settings: HTRF
T2 construct: purchased CISBIO 64BDCRBNPEH
T2 sequence (Q96SW2 whole entry): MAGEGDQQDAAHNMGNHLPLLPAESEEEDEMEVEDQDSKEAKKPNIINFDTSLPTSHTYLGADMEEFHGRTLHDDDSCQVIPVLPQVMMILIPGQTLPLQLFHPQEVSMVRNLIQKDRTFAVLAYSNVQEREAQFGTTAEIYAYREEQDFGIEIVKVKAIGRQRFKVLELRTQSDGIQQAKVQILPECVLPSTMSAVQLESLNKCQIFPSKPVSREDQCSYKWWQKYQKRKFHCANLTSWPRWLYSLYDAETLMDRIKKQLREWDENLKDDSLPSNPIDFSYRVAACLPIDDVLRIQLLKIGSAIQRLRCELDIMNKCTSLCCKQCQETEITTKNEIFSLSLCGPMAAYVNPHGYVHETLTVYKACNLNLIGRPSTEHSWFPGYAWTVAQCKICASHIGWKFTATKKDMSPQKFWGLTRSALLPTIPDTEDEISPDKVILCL
Summary of the method: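 After 3 h at room temperature, emission at 665 and 620 nm was measured in a homogeneous time-resolved fluorescence format. Compounds competed with a Thalidomide-Re probe for GST-tagged wild-type human CRBN, which was labelled with a Eu anti-GST antibody.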

[8] = target: T3, ER (Homo sapiens, UniProt P03372); test: Western blot degradation of ER (MCF-7 Cell); type: cell-based; settings: Table D12
T3 construct: evaluate the effects of the compounds of the present disclosure on the expression of target proteins in cells; endogenous in cells; host or cells: MCF-7
T3 sequence (P03372 1-595): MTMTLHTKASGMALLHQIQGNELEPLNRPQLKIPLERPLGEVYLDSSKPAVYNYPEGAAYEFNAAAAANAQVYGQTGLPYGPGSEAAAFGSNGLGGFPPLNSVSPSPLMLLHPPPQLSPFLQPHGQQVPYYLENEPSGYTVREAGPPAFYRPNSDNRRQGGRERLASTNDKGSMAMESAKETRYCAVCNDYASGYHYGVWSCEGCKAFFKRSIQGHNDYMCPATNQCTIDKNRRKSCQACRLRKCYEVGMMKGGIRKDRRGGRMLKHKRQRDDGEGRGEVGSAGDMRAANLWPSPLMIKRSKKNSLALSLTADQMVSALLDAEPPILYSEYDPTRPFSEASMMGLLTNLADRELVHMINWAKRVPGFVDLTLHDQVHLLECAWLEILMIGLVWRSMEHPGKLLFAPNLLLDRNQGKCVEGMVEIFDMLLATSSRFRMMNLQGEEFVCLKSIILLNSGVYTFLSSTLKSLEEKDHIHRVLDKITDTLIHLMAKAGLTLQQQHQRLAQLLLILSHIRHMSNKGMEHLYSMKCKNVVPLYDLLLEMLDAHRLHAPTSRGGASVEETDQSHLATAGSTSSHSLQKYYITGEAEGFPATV
Experimental: as §4, §5, §6, §7, §8, §9, §10, §11

[9] = tested on: BXPC-3; test: CCK-8 proliferation, BXPC-3; type: cell-based; settings: Homo sapiens, 96 hours, read-out: Inhibitory activity (IC50) on tumor cell proliferation, BXPC-3
Summary of the method: as §3

[10] = tested on: MGC-803; test: CCK-8 proliferation, MGC-803 (heads: MGC80-3, MGC803); type: cell-based, Human; settings: Homo sapiens, MGC-803; CCK-8; 72 hours; read-out: Inhibitory activity (IC50) on tumor cell proliferation, MGC80-3
Summary of the method: as §3

[11] = tested on: THP-1; test: CCK-8 proliferation, THP-1; type: cell-based; settings: Homo sapiens, 72 hours, read-out: Inhibitory activity (IC50) on tumor cell proliferation, THP-1
Summary of the method: as §3

[12] = tested on: H520; test: CCK-8 proliferation, H520; type: cell-based; settings: Homo sapiens, NCI-H520, 96 hours, read-out: Inhibitory activity (IC50) on tumor cell proliferation, H520
Experimental: as §1, §2

Row | IC50 [2] [nM] | IC50 [3] [nM] | IC50 [4] [nM] | IC50 [5] [nM] | SMILES | IC50 [1] [nM] | Degradation of substrate protein CDK9 (substrate protein remaining %) [6] | also measured
1 | 500 to 1000 | 500 to 1000 | 100 to 500 | 100 to 500 | O=C(NC1CCNCC1)c1[nH]ncc1NC(=O)c1c(Cl)cccc1Cl [AT7519, reference compound] | 500 to 1000 | – | –
2 | 10 to 50 | – | 100 to 500 | – | Cn1ncc(-c2nc(NC3CCN(Cc4ccc(C5CCC(=O)NC5=O)cc4)CC3)ncc2Cl)c1CC1CC1 (centres unmarked) [GT-04050, 3-(4-((4-((5-chloro-4-(5-(cyclopropylmethyl)-1-methyl-1H-pyrazol-4-yl)pyrimidin-2-yl)amino)piperidin-1-yl)methyl)phenyl)piperidine-2,6-dione] | – | A (A is defined as 0% ≤ substrate protein remaining % ≤ 80%) | –
3 | 100 to 500 | 500 to 1000 | – | 500 to 1000 | Cn1ncc(-c2nc(NC3CCN(Cc4ccc(C5CCC(=O)NC5=O)c(F)c4)CC3)ncc2Cl)c1CC1CC1 (centres unmarked) [GT-04051, 3-(4-((4-((5-chloro-4-(5-(cyclopropylmethyl)-1-methyl-1H-pyrazol-4-yl)pyrimidin-2-yl)amino)piperidin-1-yl)methyl)-2-fluorophenyl)piperidine-2,6-dione] | 500 to 1000 | A (A is defined as 0% ≤ substrate protein remaining % ≤ 80%) | –
4 | – | – | – | – | N#CC1(CNc2nc(-c3cc(NC4CCN(Cc5ccc(C6CCC(=O)NC6=O)cc5)CC4)ncc3Cl)cs2)CCOCC1 (centres unmarked) [GT-04074, 4-(((4-(5-chloro-2-((1-(4-(2,6-dioxopiperidin-3-yl)benzyl)piperidin-4-yl)amino)pyridin-4-yl)thiazol-2-yl)amino)methyl)tetrahydro-2H-pyran-4-carbonitrile] | – | A (A is defined as 0% ≤ substrate protein remaining % ≤ 80%) | –
5 | 500 to 1000 | 1 to 10 | 10 to 50 | 500 to 1000 | O=C1CCC(c2ccc(CN3CCC(n4cc(NC(=O)c5coc(-c6ccnc(NCC(F)(F)F)c6)n5)c(C(F)F)n4)CC3)cc2F)C(=O)N1 (centres unmarked) [GT-04087, N-(3-(difluoromethyl)-1-(1-(4-(2,6-dioxopiperidin-3-yl)-3-fluorobenzyl)piperidin-4-yl)-1H-pyrazol-4-yl)-2-(2-((2,2,2-trifluoroethyl)amino)pyridin-4-yl)oxazole-4-carboxamide] | 50 to 100 | A (A is defined as 0% ≤ substrate protein remaining % ≤ 80%) | –
6 | – | – | – | – | CCC(=C(c1ccc(O)cc1)c1ccc(N2CCN(Cc3ccc(C4CCC(=O)NC4=O)cc3)CC2)cc1)c1ccc(O)cc1 (centres unmarked) [GT-04149, 3-(4-((4-(4-(1,2-bis(4-hydroxyphenyl)but-1-en-1-yl)phenyl)piperazin-1-yl)methyl)phenyl)piperidine-2,6-dione] | – | – | Degradation of substrate protein ER (substrate protein remaining %) [8]: A (A is defined as 0% ≤ substrate protein remaining % ≤ 80%)
7 | – | – | – | – | O=C1CCC(c2ccc(CN3CCN(C4CCN(c5ccc([C@@H]6c7ccc(O)cc7CC[C@@H]6c6ccccc6)cc5)CC4)CC3)cc2F)C(=O)N1 (stereo partly drawn) [GT-04670, 3-(2-fluoro-4-((4-(1-(4-((1R,2S)-6-hydroxy-2-phenyl-1,2,3,4-tetrahydronaphthalen-1-yl)phenyl)piperidin-4-yl)piperazin-1-yl)methyl)phenyl)piperidine-2,6-dione] | – | – | IC50 ([7]; Table II-1, CRBN binding): 500 to 1000 nM; Degradation of substrate protein ER (substrate protein remaining %) [8]: A (A is defined as 0% ≤ substrate protein remaining % ≤ 80%)
8 | – | – | – | – | O=C1CCC(Nc2cccc(CN3CCN(C4CCN(c5ccc([C@@H]6c7ccc(O)cc7CC[C@@H]6c6ccccc6)cc5)CC4)CC3)c2)C(=O)N1 (stereo partly drawn) [GT-04674, 3-((3-((4-(1-(4-((1R,2S)-6-hydroxy-2-phenyl-1,2,3,4-tetrahydronaphthalen-1-yl)phenyl)piperidin-4-yl)piperazin-1-yl)methyl)phenyl)amino)pip eridine-2,6-dione] | – | – | Degradation of substrate protein ER (substrate protein remaining %) [8]: A (A is defined as 0% ≤ substrate protein remaining % ≤ 80%)
9 | – | – | – | – | Cc1ccc(-c2c(C)noc2C)cc1N(CC1CCN(Cc2ccc(N3CCC(=O)NC3=O)cc2F)CC1)c1ccc(C2(C#N)CC2)cc1 [GT-04973, 1-(4-((5-(3,5-dimethylisoxazol-4-yl)-2-methylphenyl)((1-(4-(2,4-dioxotetrahydropyrimidin-1(2H)-yl)-2-fluorobenzyl)piperidin-4-yl)methyl)amino)phenyl)cyclopropane-1-carbonitrile] | – | – | IC50 [9]: 100 to 500 nM; IC50 [10]: 500 to 1000 nM; IC50 [11]: 500 to 1000 nM; IC50 [12]: 500 to 1000 nM
10 | > 10000 | – | – | – | C[C@]12CC[C@H](O)CC1=CC[C@@H]1[C@@H]2CC[C@]2(C)C(c3cccnc3)=CC[C@@H]12 [abiraterone] | – | – | IC50 [9]: > 10000 nM; IC50 [10]: > 10000 nM; IC50 [11]: > 10000 nM; IC50 [12]: > 10000 nM

Row | SMILES | IC50 [2] [nM] | IC50 [3] [nM] | IC50 [4] [nM] | IC50 [5] [nM] | IC50 [1] [nM] | Degradation of substrate protein CDK9 (substrate protein remaining %) [6] | also measured
11 | O=C1CCC(c2ccc(CN3CCC(n4cc(NC(=O)c5coc(-c6ccnc(NCC(F)(F)F)c6)n5)c(C(F)F)n4)CC3)cc2)C(=O)N1 (centres unmarked) [GT-04121, N-(3-(difluoromethyl)-1-(1-(4-(2,6-dioxopiperidin-3-yl)benzyl)piperidin-4-yl)-1H-pyrazol-4-yl)-2-(2-((2,2,2-trifluoroethyl)amino)pyridin-4-yl)oxazole-4-carboxamide] | 100 to 500 | 10 to 50 | 100 to 500 | 500 to 1000 | 100 to 500 | A (A is defined as 0% ≤ substrate protein remaining % ≤ 80%) | Inhibition rate (%) at 0.5µM ([7]; Table II-2, CRBN binding screening, at 0.5µM): a2 (20% < a2 ≤ 30%); Inhibition rate (%) at 2 µM ([7]; Table II-2, CRBN binding screening, at 2 µM): a6 (60% < a6 ≤ 80%)
